In patent US20090318465A1, “METHOD FOR IDENTIFYING COMPOUNDS THAT ACT AS INSULIN-SENSITIZERS” (priority 2006, published 2009):
Entries after “also recorded” stand apart in the source; their conditions may differ.

Legend:
[1] = test system: genetically diabetic db/db BL/6J mice; assay: Screening in db/db BL/6J mice, plasma glucose reduction; assay type: in vivo; conditions: 10 days
Procedure: In an embodiment, the method includes selecting 6-8 weeks old male db/db mice based on blood glucose levels determined after withholding feed for four hours. For example, the method can employ animals with plasma glucose levels in a suitable range, such as 300-500 mg/dl. The selected mice can be orally dosed with test (lead) compound, for example, in 0.5% carboxy methyl cellulose (CMC) vehicle at a suitable frequency and for a suitable time, such as twice daily for 10 consecutive days. This embodiment of the method can include obtaining blood on, for example, day 5 and day 10, after withholding feed for four hours, and determining plasma glucose levels. These levels can be determined using enzymatic methods (e.g., Diasys kit, Germany) in an autoanalyser. Lead compounds are considered to be in vivo actives if they produce statistically significant fall in plasma glucose on day 10 compared to mice treated with 0.5% CMC vehicle. Rosiglitazone can be used as a standard at 5 mg per kg (mpk) bid for comparison with test compounds.
The protocol was designed as in references. • 1.
The screening of compounds was based on their ability to reduce the plasma glucose levels in genetically diabetic db/db BL/6J mice.
Male db/db mice (obtained from the Animal House of Nicholas Piramal Research Centre, Goregaon, Mumbai, India) were used for this study (body weight in the range of 30-40 g and age is 6-8 weeks) and were kept eight per cage in individually ventilated cages at controlled temperature (22±1° C.) and humidity (45±5%). Food and water were provided ad libitum during their laboratory stay, except for four hours fasting prior to blood sample collection. 12 hours light and dark cycle was followed during the whole study period.
After 4 hours fasting blood samples were collected from mice. Mice showing plasma glucose levels between 300 to 500 mg/dl were divided in groups (8-10 per group) such that the mean plasma glucose levels and variation within the group, for each group, is nearly same. After grouping, mice in respective groups received treatment with 0.5% CMC vehicle, standard compound or test compounds for 10 days. Rosiglitazone was used as a standard.
After 4 hours fasting, mice were anaesthetized using isoflurane (inhalation anesthetic), and blood samples were collected through the retro orbital plexus. Collected blood samples were centrifuged at 7000 rpm for 10 minutes at 4° C.; Separated plasma was used for estimation of plasma glucose using diagnostic kits (Diasys, Germany). Plasma glucose levels of treated groups were normalized with control group using the following formula, which accounted for the changes in control group.

[2] = test system: dexamethasone treated insulin resistant 3T3-L1 adipocytes; assay: Insulin resistance assay (IR assay), 14C-2-deoxyglucose uptake; assay type: cell-based, mouse; conditions: for % of Rosiglitazone (comparison with Rosiglitazone): test compound 10 μM/mL versus Rosiglitazone 0.1 μM; for Fold vehicle (fold activity over vehicle): test compound 10 μM/mL, glucose uptake with 200 nM insulin, vehicle = 1.0
From the text: A suitable insulin resistance assay includes screening of compounds which act as insulin-sensitizers using chronically dexamethasone treated 3T3-L1 adipocytes as an in vitro model. This is a known model for studying insulin signaling and insulin resistance. Chronically dexamethasone treated 3T3-L1 adipocytes serve as a valid in vitro model of insulin resistance resembling diabetes patients.
In an embodiment, the method according to the present invention includes screening compounds identified as active in the phenotype-based assay against dexamethasone treated insulin resistant adipocytes. For example, the method can include applying actives from the insulin sensitivity assay at a concentration of 1-10 μM to the insulin resistant adipocytes for 1-4 days. The adipocytes were previously prepared for the assay by long term exposure to dexamethasone, for example, at 100 nM for about 24-48 hours.
The method can also include determining whether the compounds enhance glucose uptake in the insulin resistant adipocytes by more than 50% above that enhanced by insulin. The method can then include selecting compounds as active, if they caused 1.5 fold or more increase in glucose uptake compared to insulin treated adipocytes. Glucose uptake can be measured by any of a variety of known methods, such as measuring uptake of ^14C-labeled 2-deoxyglucose, a non metabolisable analogue of D-Glucose.
The assay was designed as in the reference, British Journal of Pharmacology, 130, 351-58, 2000, which is incorporated herein by reference for disclosure of the assay.
The solution of test compound (10 μM/mL) was prepared in DMSO.
Rosiglitazone (0.1 μM in DMSO) was used as standard.
Differentiation into adipocytes was induced by known methods as described below. (J. Biol. Chem., 260, 2646-2652, 1985, which is incorporated herein by reference for disclosure of the induction).
Culture medium containing […] 1-methyl-3-isobutylxanthine (IBMX), 0.25 μM dexamethasone, 5 μg/ml insulin (bovine/human), 10 mM HEPES buffer and fetal bovine serum (FBS) 10% by volume in Dulbecco's modified Eagle's medium (DMEM) was used for differentiation.
3T3 L1 fibroblasts were seeded in 24-well or 6-well plates at a density of 0.5-2×10^4 cells/well and were allowed to reach maximal confluency.
The confluent fibroblasts were exposed to culture medium for 2 days. After this period, fresh culture medium (DMEM) containing only insulin was used, 10% FBS was added and cultured for 4 days with change of medium every 2 days. After 7 days the cultures received DMEM containing 10% FBS with no exposure to insulin. By the end of 8-10 days, more than 95% of the cells have become differentiated into adipocytes.
The mature adipocytes were exposed to dexamethasone, 100 nM added in ethanol, in culture medium and incubated for 2 days. On the third day, solution of test compound was added along with 100 nM dexamethasone containing medium for 4 days with a change in medium after every 2 days. Vehicle control contained 1% v/v of DMSO. Rosiglitazone was used as a standard and was added at a concentration of 0.1 μM in DMSO, along with 100 nM dexamethasone containing medium for 4 days with a change in medium after every 2 days. After a total period of 6 days, the cells were processed for glucose uptake as follows.
The insulin resistant adipocytes were exposed to serum-free DMEM containing 0.1% bovine serum albumin for 3-4 hours at 37° C. in CO2 atmosphere. The test compound was also present during this period. After 3-4 hours, the medium was aspirated and replaced with Kreb's Ringer phosphate (KRP) buffer at pH 7.4 and with human/porcine insulin, 200 nM. The cells were incubated for 30 minutes at 37° C. At the end of 30 minutes, 0.05 or 0.1 μCi of ^14C-2-deoxyglucose was added to each well of either 24-well or 6-well plates respectively and was incubated for exactly 5 minutes. After exactly 5 minutes, the plates were transferred to ice trays and medium was rapidly aspirated. […]

db/db mice = assay: Evaluation of lipid levels (dyslipidemia) in db/db mice; assay type: in vivo; conditions: 15 days
Procedure: (§1) Body weight was measured daily. On day 15, the animals were deprived of food for 4 hours after the last dose administration. Blood was collected at the end of the 4-hour period using heparinised capillaries by a retro-orbital puncture. Plasma samples were analyzed for, triglyceride and cholesterol, using the autoanalyser.
The assay was designed as in the reference, Metabolism, 49 (1), 22-31, 2000, the disclosure of which is incorporated by reference for the teaching of the assay.
as §1, with “Seven groups of male db/db mice (8 animals per group) were used. […] Body” for “Body”, “for glucose, triglyceride,” for “for, triglyceride and”

[3] = test system: diet induced obese (DIO) mice; assay: Evaluation of antiobesity, chronic study in diet induced obese mice; assay type: in vivo; conditions: 10 days, vs vehicle
From the text: In an embodiment, the method includes selecting 17-18 week old male diet induced obese (DIO) mice, which were maintained on a high fat diet (D12451, Research Diets Inc, New Brunswick, N.J. 08901, USA, 45% kcal from fat), based on body weight. The selected mice can be dosed intraperitoneally with test (lead) compound, for example, in 0.5% CMC vehicle at a suitable frequency and for a suitable time, such as once daily for 10 consecutive days. This embodiment of the method can include recording body weight and food weight daily. Lead compounds are considered to be in vivo active if they produce statistically significant decrease in cumulative food intake for up to 1 day and a statistically significant decrease in cumulative body weight gain on day 10 as compared to mice treated with the 0.5% CMC vehicle. Sibutramine can be used as a standard at 3 mpk for comparison.
The assay was designed as in the reference, British Journal of Pharmacology, 132, 1898-1904, 2001, the disclosure of which is incorporated by reference for the teaching of the assay.
Male C57BI6/J mice (3-4 weeks of age) were housed in groups of 10 animals per cage in the animal facility. High fat diet (D12451 Research Diets Inc., New Brunswick, N.J. 08901, USA, 45% kcal from fat) and water was provided ad libitum for 14 weeks. After this period, the animals were housed individually in cages. The animals were weighed and separated into groups with similar body weight. They were acclimatised to the experimental procedures for 2 days. Animals were dosed intraperitoneally with test compound (200 mpk) or the standard (3 mpk) in 10 mL/kg of 0.5% CMC vehicle between 10:00 am-12:00 noon. After drug administration the animals were presented with a pre-weighed amount of food in the food cup. Weight of feed remaining in the cup and body weight were recorded daily just prior to dosing. The change in weight and cumulative food intake were computed.

| SMILES | Normalization with control (plasma glucose reduction) ([1]; 100 mpk bid, oral, 4 h fasted) | % of Rosiglitazone (comparison with Rosiglitazone) [2] | Fold vehicle (fold activity over vehicle) [2] | further results |
| --- | --- | --- | --- | --- |
| COc1ccc(S(=O)(=O)Nc2cnc(Oc3cnc4ccccc4c3)c(Cl)c2)cc1 [Compound 8, N-[5-Chloro-6-(quinolin-3-yloxy)-pyridine-3-yl]-4-methoxy-benzene sulfonamide] | 41.90 ± 3.84 | 66.4 ± 5.2% | 2.19 ± 0.09 |  |
| CC(C)(COC(=O)COc1ccc(C(=O)CN2Cc3cc(C(N)=S)ccc3C2=O)cc1)NS(=O)(=O)c1cccnc1 [Compound 3, {4-[2-(1-Oxo-5-thiocarbamoyl-1,3-dihydro-isoindol-2-yl)-acetyl]-phenoxy}-aceticacid-2-methyl-2-(pyridine-3-sulfonylamino)-propyl ester] |  | 31.6 ± 6.2% | 1.48 ± 0.09 | Normalization with control (plasma glucose reduction) ([1]; 50 mpk od): Inactive |
| COC(Cc1ccc(OCCN(C)C(=O)OC(C)(C)C)cc1)C(=O)O (stereo not shown) [Compound 2, 3-{4-[2-(tert-Butoxycarbonyl-methyl-amino)-ethoxy]-phenyl}-2-methoxy-propionic acid] | 45.14 ± 4.92 | 105 ± 3.6% | 2.62 ± 0.05 |  |
| O=S(=O)(Nc1cnc(Oc2cc3ccccc3cn2)c(Cl)c1)c1ccc(Cl)cc1Cl [Compound 5, 2,4-Dichloro-N-[5-chloro-6-(isoquinolin-3-yloxy)pyridin-3-yl]-benzene sulfonamide] |  | 78.7 ± 3.5% | 2.41 ± 0.06 | Normalization with control (plasma glucose reduction) ([1]; 150 mpk od): 43.2 ± 15.7; reduction in cholesterol levels (db/db mice; doses higher than 50 mpk oral bid): 26% |
| COC(=O)C(Cc1ccc(OCCN(C)C(=O)OC(C)(C)C)cc1)(OC)C(=O)OC [Compound 1, 2-{4-[2-(tert-Butoxycarbonyl-methyl-amino)-ethoxy]-benzyl}-2-methoxy-malonic acid dimethyl ether] | 42.93 ± 4.95 | 72.5 ± 2.6% | 2.2 ± 0.18 |  |
| CC(=O)N1CCN(c2ccc(Oc3ncc(NS(=O)(=O)c4ccc(Cl)cc4Cl)cc3Cl)cc2)CC1 [Compound 6, N-{6-[4-(4-Acetyl-piperazin-1-yl)-phenoxy]-5-chloro-pyridin-3-yl}-2,4-dichloro benzenesulfonamide] | 46.07 ± 4.55 | 61.4 ± 3.15% | 2.10 ± 0.05 | cumulative food intake ([3]; 200 mpk intraperitoneally, FIG. 4, 200 mg/kg): effective in reducing cumulative food intake; also recorded: significantly inhibited food intake; cumulative body weight gain ([3]; 200 mpk intraperitoneally, FIG. 5, 200 mg/kg): effective in reducing cumulative body weight gain; also recorded: inhibited body weight gain on all days |
| CC(=O)N1CCN(c2ccc(Oc3ncc(NC(=O)CCC(=O)O)cc3Cl)cc2)CC1 [Compound 7] | Inactive | 27.5 ± 3.0% | 1.49 ± 0.05 |  |
| CN(CCOc1ccc(CC2SC(=O)NC2=O)cc1)c1ccccn1 (stereo not shown) [Rosiglitazone] |  |  |  | decrease in plasma triglyceride levels (db/db mice; Rosiglitazone 5 mpk oral bid): 40%; reduction in cholesterol levels (db/db mice; Rosiglitazone 5 mpk oral bid): 27% |
| CC(C)CC(N(C)C)C1(c2ccc(Cl)cc2)CCC1 (stereo not shown) [Sibutramine, reference compound] |  |  |  | cumulative food intake ([3]; standard 3 mpk intraperitoneally, FIG. 4): significantly inhibited food intake; cumulative body weight gain ([3]; standard 3 mpk intraperitoneally, FIG. 5): inhibited body weight gain on all days |
| CCOC(=O)CCN1Cc2cc(NCCN(C)c3nc4ccccc4o3)ccc2C1=O [Compound 4, 3-{5-[2-(Benzooxazol-2-yl-methyl-amino)-ethylamino]-1-oxo-1,3-dihydro-isoindol-2-yl}propionic acid ethyl ester] |  | 76.8 ± 12.4% | 1.88 ± 0.14 | Normalization with control (plasma glucose reduction) ([1]; 50 mpk bid): 24.99 ± 17.92 |
